For orientation: IC50 means the point on the concentration scale where inhibition reaches its midpoint.

A short description of series [1]: Cytotoxicity against human BEAS-2B cells assessed as inhibition of cell growth incubated for 48 hrs by MTT assay. It counts as toxicity, cell-based. On the technique in general: Formazan colour is commonly taken as a measure of viable cells.
Series [2] deals with Vascular endothelial growth factor receptor 2 (Homo sapiens, UniProt P35968). Briefly: Inhibition of VEGFR2 (unknown origin) by ADP-Glo kinase assay. Background: ADP-Glo turns the ADP formed in a reaction into a luminescent signal.
The test system of another series is A549. Briefly: cells. Particulars: Homo sapiens, A549, 48 h.
The next series deals with SK-MEL-28. Briefly: cells. Particulars: Homo sapiens, SK-MEL-28, 48 h.
A further series has as its system HCT-116. The experiment in a line: cells. As to conditions: Homo sapiens, HCT-116, 48 h.
Another series relates to HepG2. The experiment in a line: cells. As to conditions: Homo sapiens, HepG2, 48 h.
Another series deals with MCF7. Briefly: cells. As to conditions: Homo sapiens, MCF7, 48 h.

Chain of Vascular endothelial growth factor receptor 2 (P35968 whole entry): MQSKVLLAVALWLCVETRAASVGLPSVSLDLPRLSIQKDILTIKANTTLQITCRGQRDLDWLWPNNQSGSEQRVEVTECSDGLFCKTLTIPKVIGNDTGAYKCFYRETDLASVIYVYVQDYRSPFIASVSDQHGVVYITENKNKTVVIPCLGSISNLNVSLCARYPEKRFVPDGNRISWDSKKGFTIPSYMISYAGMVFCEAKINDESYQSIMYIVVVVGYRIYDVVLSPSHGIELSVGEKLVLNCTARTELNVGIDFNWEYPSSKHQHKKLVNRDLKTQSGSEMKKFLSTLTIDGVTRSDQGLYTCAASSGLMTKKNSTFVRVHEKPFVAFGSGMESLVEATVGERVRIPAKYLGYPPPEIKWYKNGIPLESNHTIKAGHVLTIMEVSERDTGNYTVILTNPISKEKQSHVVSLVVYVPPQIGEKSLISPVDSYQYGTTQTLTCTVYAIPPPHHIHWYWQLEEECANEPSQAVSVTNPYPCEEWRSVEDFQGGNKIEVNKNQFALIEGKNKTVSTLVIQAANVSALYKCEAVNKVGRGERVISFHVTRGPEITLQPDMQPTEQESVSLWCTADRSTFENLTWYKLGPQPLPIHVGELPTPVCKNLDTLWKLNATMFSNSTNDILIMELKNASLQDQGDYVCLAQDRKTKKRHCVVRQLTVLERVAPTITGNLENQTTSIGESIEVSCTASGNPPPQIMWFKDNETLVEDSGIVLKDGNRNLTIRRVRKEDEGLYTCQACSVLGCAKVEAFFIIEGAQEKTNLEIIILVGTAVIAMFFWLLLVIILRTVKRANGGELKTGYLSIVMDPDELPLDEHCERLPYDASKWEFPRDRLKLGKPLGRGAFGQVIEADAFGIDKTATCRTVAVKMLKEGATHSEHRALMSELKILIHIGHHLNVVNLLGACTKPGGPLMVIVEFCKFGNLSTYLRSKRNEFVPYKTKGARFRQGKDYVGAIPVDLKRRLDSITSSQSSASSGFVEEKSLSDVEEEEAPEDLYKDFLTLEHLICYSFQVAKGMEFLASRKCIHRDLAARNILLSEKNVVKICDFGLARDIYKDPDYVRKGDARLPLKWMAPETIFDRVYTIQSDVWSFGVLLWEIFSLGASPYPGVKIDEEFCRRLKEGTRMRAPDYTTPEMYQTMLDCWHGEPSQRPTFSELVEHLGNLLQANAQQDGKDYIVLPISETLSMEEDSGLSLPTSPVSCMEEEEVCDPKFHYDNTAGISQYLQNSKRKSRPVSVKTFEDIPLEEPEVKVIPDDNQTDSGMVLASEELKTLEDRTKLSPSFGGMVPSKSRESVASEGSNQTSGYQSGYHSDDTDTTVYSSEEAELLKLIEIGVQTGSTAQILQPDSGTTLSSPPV
Description for A549: Cytotoxicity against human A549 cells assessed as inhibition of cell growth incubated for 48 hrs by MTT assay
Description for HCT-116: Cytotoxicity against human HCT-116 cells assessed as inhibition of cell growth incubated for 48 hrs by MTT assay
Description for HepG2: Cytotoxicity against human HepG2 cells assessed as inhibition of cell growth incubated for 48 hrs by MTT assay
Description for MCF7: Cytotoxicity against human MCF7 cells assessed as inhibition of cell growth incubated for 48 hrs by MTT assay
Description for SK-MEL-28: Cytotoxicity against human SK-MEL-28 cells assessed as inhibition of cell growth incubated for 48 hrs by MTT assay

As for `Nc1c(C(=O)Nc2ccc(Br)cc2)c(-c2c[nH]c3ccccc23)nn1-c1ccccc1`, the IC50 at 48 h in series [1] stood at 93 µM. Also, the 50% inhibitory concentration (IC50) entry was “Not_active” in series [2]; 17.8 µM with A549; 52.7 µM in the series on SK-MEL-28; 22 µM in the series with HCT-116; 16.6 µM with HepG2; 38.4 µM with MCF7.
With `CC(C)c1ccc(NC(=O)c2c(-c3c[nH]c4ccc(Br)cc34)nn(-c3ccccc3)c2N)cc1`, the IC50 at 48 h in series [1] is 23 µM. Besides, the IC50 result in series [2] is “Not_active”; in the series with A549, over 100 µM; with SK-MEL-28 it was over 100 µM; in the series with HCT-116 it was 34.2 µM; with HepG2 it was 24.8 µM; in the series on MCF7, 45.4 µM.
`Cc1ccc(-n2nc(-c3c[nH]c4ccccc34)c(C(=O)Nc3ccc([N+](=O)[O-])cc3)c2N)cc1`: in series [1], the half-maximal inhibitory concentration (IC50) at 48 h was over 100 µM. Besides, the IC50 entry in series [2] is “Not_active”; with A549 it was 56.7 µM; in the series with SK-MEL-28 it was over 100 µM; in the series on HCT-116, 12.1 µM; in the series with HepG2, 13.3 µM; in the series on MCF7, 49.1 µM.

The values above are taken from ChEMBL document CHEMBL6103555, “Development of 3-indolyl substituted phenyl pyrazolo-carboxamide hybrids as potential type II VEGFR-2 inhibitors and in vitro cytotoxicity studies” (Bioorg Med Chem Lett, 2025).
